Reference: PubChem BioAssay AID220 (DTP/NCI, 2004)
Values joined by “and” are separate entries in the source; they are usually repeats but may differ in a detail not shown here. Identical values can stand only once. Inconclusive results are not listed. Starred links: 1 amine or outer side, 2 acyl side, 3 side chain; linkers in the order of their positions; H or OH if unused. Positions of bridges follow the written chain, without caps; N, C: chain ends. Non-standard residues stand in square brackets, D forms with d. Residues, ends and D or L forms follow the SMILES beside them. Chains are numbered I, II in the order given. Actinocin(1to9) = Cc1c2oc3c(C)ccc(C(=O)[*:2])c3nc-2c(C(=O)[*:1])c(N)c1=O; NMeV = CN[CH](C(=O)O)C(C)C; Aze = O=C(O)[CH]1CCN1; Sar = CNCC(=O)O

Tested on: CD8F1 mice, subcutaneous mammary adenocarcinoma, T/C%
Assay: NCI In Vivo Anticancer Drug Screen. Data for tumor model Mammary Adenocarcinoma CD8F1 (subcutaneous) in CD8F1
Settings: higher = larger tumour
Protocol: The antitumor activity of compounds was measured in mice bearing transplantable tumors. Survival or tumor size were measured and the results are expressed as the measurement made in the treated group (T) divided by the measurement made in the vehicle treated control group (C). The tumor model used in this assay is Mammary Adenocarcinoma CD8F1 (subcutaneous) in CD8F1

[1] = endpoint: median tumor weight (est.), dose: 6.25 mg/kg/injection, schedule: Q07DX005 (ip), vehicle: saline with Tween-80
[2] = endpoint: median tumor weight (est.), dose: 12.5 mg/kg/injection, schedule: Q07DX005 (ip), vehicle: saline with Tween-80
[3] = endpoint: median tumor weight (est.), dose: 25.0 mg/kg/injection, schedule: Q07DX005 (ip), vehicle: saline with Tween-80
[4] = endpoint: median tumor weight (est.), dose: 50.0 mg/kg/injection, schedule: Q07DX005 (ip), vehicle: saline with Tween-80
[5] = endpoint: median tumor weight (est.), dose: 100.0 mg/kg/injection, schedule: Q07DX005 (ip), vehicle: saline with Tween-80
[6] = endpoint: median tumor weight (est.), dose: 200.0 mg/kg/injection, schedule: Q07DX005 (ip), vehicle: saline with Tween-80

O=C(CCl)NC(Cc1ccc(N(CCCl)CCCl)cc1)C(=O)O (centres undefined)
T/C (endpoint: median tumor weight (est.), dose: 2.0 mg/kg/injection, schedule: Q01DX001 (ip), vehicle: Klucel (hydroxypropylcellulose) (HPC)): 93 % of control
T/C (endpoint: median tumor weight (est.), dose: 4.0 mg/kg/injection, schedule: Q01DX001 (ip), vehicle: Klucel (hydroxypropylcellulose) (HPC)): 54 % of control
T/C (endpoint: median tumor weight (est.), dose: 8.0 mg/kg/injection, schedule: Q01DX001 (ip), vehicle: Klucel (hydroxypropylcellulose) (HPC)): 75 % of control and 82 % of control
T/C (endpoint: median tumor weight (est.), dose: 16.0 mg/kg/injection, schedule: Q01DX001 (ip), vehicle: Klucel (hydroxypropylcellulose) (HPC)): 48 % of control and 60 % of control
T/C (endpoint: median tumor weight (est.), dose: 32.0 mg/kg/injection, schedule: Q01DX001 (ip), vehicle: Klucel (hydroxypropylcellulose) (HPC)): 60 % of control and 62 % of control
T/C (endpoint: median tumor weight (est.), dose: 64.0 mg/kg/injection, schedule: Q01DX001 (ip), vehicle: Klucel (hydroxypropylcellulose) (HPC)): 19 % of control and 43 % of control

CN1CCN(c2ccc([N+](=O)[O-])c3no[n+]([O-])c23)CC1
T/C (endpoint: median tumor weight (est.), dose: 5.0 mg/kg/injection, schedule: Q07DX005 (ip), vehicle: saline with Tween-80): 95 % of control
T/C (endpoint: median tumor weight (est.), dose: 10.0 mg/kg/injection, schedule: Q07DX005 (ip), vehicle: saline with Tween-80): 115 % of control
T/C (endpoint: median tumor weight (est.), dose: 20.0 mg/kg/injection, schedule: Q07DX005 (ip), vehicle: saline with Tween-80): 75 % of control

O=[N+]([O-])O.O=[N+]([O-])O.[NH-]C1CCCCC1[NH-].[Pt+2] (centres undefined)
T/C (endpoint: median tumor weight (est.), dose: 0.5 mg/kg/injection, schedule: Q07DX005 (ip), vehicle: dextrose): 46 % of control and 52 % of control
T/C (endpoint: median tumor weight (est.), dose: 2.0 mg/kg/injection, schedule: Q07DX005 (ip), vehicle: dextrose): 50 % of control
T/C (endpoint: median tumor weight (est.), dose: 4.0 mg/kg/injection, schedule: Q07DX005 (ip), vehicle: dextrose): 29 % of control and 38 % of control
T/C (endpoint: median tumor weight (est.), dose: 8.0 mg/kg/injection, schedule: Q07DX005 (ip), vehicle: dextrose): 12 % of control and 29 % of control

COC1/C=C/O[C@@]2(C)Oc3c(C)c(O)c4c(O)c(cc(O)c4c3C2=O)NC(=O)/C(C)=C\C=C\[C@H](C)C(O)[C@@H](C)[C@@H](O)[C@@H](C)[C@H](OC(C)=O)[C@@H]1C (some centres undefined)
T/C (endpoint: median tumor weight change, dose: 31.25 mg/kg/injection, schedule: Q01DX001 (ip), vehicle: saline with Tween-80): 87 % of control
T/C (endpoint: median tumor weight change, dose: 62.5 mg/kg/injection, schedule: Q01DX001 (ip), vehicle: saline with Tween-80): 82 % of control
T/C (endpoint: median tumor weight change, dose: 125.0 mg/kg/injection, schedule: Q01DX001 (ip), vehicle: saline with Tween-80): 98 % of control
T/C (endpoint: median tumor weight change, dose: 250.0 mg/kg/injection, schedule: Q01DX001 (ip), vehicle: saline with Tween-80): 153 % of control
T/C (endpoint: median tumor weight change, dose: 500.0 mg/kg/injection, schedule: Q01DX001 (ip), vehicle: saline with Tween-80): 83 % of control

BrCC[Se]c1ccccc1
T/C [1]: 78 % of control
T/C [2]: 104 % of control
T/C [3]: 80 % of control
T/C [4]: 152 % of control

COC1C(O)CC(OC2C(C)OC(Oc3cc(O)c4c(O)c5c(cc4c3)C[C@@H]([C@H](OC)C(=O)[C@@H](O)[C@@H](C)O)[C@H](OC3CC(OC4CC(OC6CC(C)(O)C(O)C(C)O6)C(O)C(C)O4)C(O)C(C)O3)C5=O)CC2OC(C)=O)OC1C (some centres undefined)
T/C (endpoint: median tumor weight (est.), dose: 18.75 mg/kg/injection, schedule: Q07DX005 (ip), vehicle: suspension in saline): 207 % of control
T/C (endpoint: median tumor weight (est.), dose: 75.0 mg/kg/injection, schedule: Q07DX005 (ip), vehicle: suspension in saline): 66 % of control
T/C (endpoint: median tumor weight (est.), dose: 150.0 mg/kg/injection, schedule: Q07DX005 (ip), vehicle: suspension in saline): 111 % of control
T/C (endpoint: median tumor weight (est.), dose: 300.0 mg/kg/injection, schedule: Q07DX005 (ip), vehicle: suspension in saline): 123 % of control

CS(=O)(=O)c1ncc(Br)cn1
T/C [1]: 242 % of control
T/C [2]: 405 % of control
T/C [3]: 222 % of control
T/C [4]: 286 % of control
T/C [5]: 348 % of control
T/C [6]: 311 % of control

COc1cccc2c1C(=O)c1c(O)c3c(c(O)c1C2=O)C[C@H](O)C[C@@H]3OC1CC(N)C(O)C(C)O1 (some centres undefined)
T/C (endpoint: median tumor weight (est.), dose: 0.78 mg/kg/injection, schedule: Q07DX005 (ip), vehicle: saline): 68 % of control
T/C (endpoint: median tumor weight (est.), dose: 1.56 mg/kg/injection, schedule: Q07DX005 (ip), vehicle: saline): 79 % of control
T/C (endpoint: median tumor weight (est.), dose: 3.12 mg/kg/injection, schedule: Q07DX005 (ip), vehicle: saline): 82 % of control
T/C (endpoint: median tumor weight (est.), dose: 6.25 mg/kg/injection, schedule: Q07DX005 (ip), vehicle: saline): 84 % of control
T/C (endpoint: median tumor weight (est.), dose: 12.5 mg/kg/injection, schedule: Q07DX005 (ip), vehicle: saline): 70 % of control

O=C1c2ccccc2C(=O)c2c(NCCNCCO)ccc(O)c21
T/C (endpoint: median tumor weight change, dose: 25.0 mg/kg/injection, schedule: Q01DX001 (ip), vehicle: saline with Tween-80): 91 % of control
T/C (endpoint: median tumor weight change, dose: 50.0 mg/kg/injection, schedule: Q01DX001 (ip), vehicle: saline with Tween-80): 44 % of control
T/C (endpoint: median tumor weight change, dose: 100.0 mg/kg/injection, schedule: Q01DX001 (ip), vehicle: saline with Tween-80): 41 % of control
T/C (endpoint: median tumor weight change, dose: 200.0 mg/kg/injection, schedule: Q01DX001 (ip), vehicle: saline with Tween-80): 33 % of control

COc1ccc(C[C@H](N)C(=O)NC2C(CO)OC(n3cnc4c(N(C)C)ncnc43)C2O)cc1 (some centres undefined)
T/C (endpoint: median tumor weight (est.), dose: 48.0 mg/kg/injection, schedule: Q07DX005 (ip), vehicle: saline): 90 % of control
T/C (endpoint: median tumor weight (est.), dose: 96.0 mg/kg/injection, schedule: Q07DX005 (ip), vehicle: saline): 63 % of control
T/C (endpoint: median tumor weight (est.), dose: 192.0 mg/kg/injection, schedule: Q07DX005 (ip), vehicle: saline): 62 % of control
T/C (endpoint: median tumor weight (est.), dose: 384.0 mg/kg/injection, schedule: Q07DX005 (ip), vehicle: saline): 16 % of control

Cc1c2oc3c(C)ccc(C(=O)NC4C(=O)NC(C(C)C)C(=O)N5CCCC5C(=O)N(C)CC(=O)N(C)C(C(C)C)C(=O)OC4C)c3nc-2c(C(=O)NC2C(=O)NC(C(C)C)C(=O)N3CCC3C(=O)N(C)CC(=O)N(C)C(C(C)C)C(=O)OC2C)c(N)c1=O (centres undefined) (I: TV[Aze][Sar][NMeV] / II: TVP[Sar][NMeV]; ester I:1-I:C, II:1-II:C; linker I:N-II:N via Actinocin(1to9); configuration not given here)
T/C (endpoint: median tumor weight (est.), dose: 300.0 micrograms/kg/injection, schedule: Q07DX005 (ip), vehicle: saline + alcohol): 34 % of control and 44 % of control
T/C (endpoint: median tumor weight (est.), dose: 600.0 micrograms/kg/injection, schedule: Q07DX005 (ip), vehicle: saline + alcohol): 2 % of control

COC1=C(OC)C(=O)C(Sc2ccc3ccccc3c2)=CC1=O
T/C [2]: 115 % of control
T/C [3]: 84 % of control
T/C [4]: 122 % of control
T/C [6]: 92 % of control

O=C1NC(c2ccccc2)N=C2Oc3ccccc3C=C12 (centres undefined)
T/C (endpoint: median tumor weight (est.), dose: 3.12 mg/kg/injection, schedule: Q07DX005 (ip), vehicle: saline with Tween-80): 116 % of control
T/C [1]: 50 % of control
T/C [2]: 109 % of control
T/C [3]: 78 % of control and 101 % of control
T/C [4]: 95 % of control and 115 % of control
T/C [5]: 63 % of control and 85 % of control

S=c1[nH]cc2cnccn12
T/C [2]: 92 % of control
T/C [3]: 105 % of control
T/C [5]: 85 % of control
T/C [6]: 56 % of control

COc1ccc(S(=O)(=O)N/N=C/C(=O)O)cc1
T/C [1]: 55 % of control
T/C [2]: 198 % of control
T/C [3]: 73 % of control and 82 % of control
T/C [4]: 206 % of control
T/C [6]: 44 % of control and 61 % of control

[N-]=[N+]=CC(=O)CCC(=O)C=[N+]=[N-]
T/C (endpoint: median tumor weight (est.), dose: 6.25 mg/kg/injection, schedule: Q07DX005 (ip), vehicle: DMSO): 65 % of control
T/C (endpoint: median tumor weight (est.), dose: 12.5 mg/kg/injection, schedule: Q07DX005 (ip), vehicle: DMSO): 73 % of control
T/C (endpoint: median tumor weight (est.), dose: 25.0 mg/kg/injection, schedule: Q07DX005 (ip), vehicle: DMSO): 78 % of control
T/C (endpoint: median tumor weight (est.), dose: 50.0 mg/kg/injection, schedule: Q07DX005 (ip), vehicle: DMSO): 38 % of control
T/C (endpoint: median tumor weight (est.), dose: 100.0 mg/kg/injection, schedule: Q07DX005 (ip), vehicle: DMSO): 47 % of control

COc1cccc(C2NC(=O)c3c(n[nH]c3N)S2)c1O (centres undefined)
T/C (endpoint: median tumor weight change, dose: 112.5 mg/kg/injection, schedule: Q01DX001 (ip), vehicle: saline with Tween-80): 71 % of control
T/C (endpoint: median tumor weight change, dose: 225.0 mg/kg/injection, schedule: Q01DX001 (ip), vehicle: saline with Tween-80): 91 % of control
T/C (endpoint: median tumor weight change, dose: 450.0 mg/kg/injection, schedule: Q01DX001 (ip), vehicle: saline with Tween-80): 92 % of control
T/C (endpoint: median tumor weight change, dose: 900.0 mg/kg/injection, schedule: Q01DX001 (ip), vehicle: saline with Tween-80): 76 % of control
T/C (endpoint: median tumor weight change, dose: 1800.0 mg/kg/injection, schedule: Q01DX001 (ip), vehicle: saline with Tween-80): 79 % of control

CC1=CC2C(O)(CC(CO)=CC3C4C(C)(C)C4(OC(=O)c4ccccc4)C(OC(=O)c4ccccc4)C(C)C32O)C1=O (centres undefined)
T/C (endpoint: median tumor weight change, dose: 0.63 mg/kg/injection, schedule: Q01DX001 (ip), vehicle: saline with Tween-80): 88 % of control
T/C (endpoint: median tumor weight change, dose: 1.25 mg/kg/injection, schedule: Q01DX001 (ip), vehicle: saline with Tween-80): 58 % of control
T/C (endpoint: median tumor weight change, dose: 5.0 mg/kg/injection, schedule: Q01DX001 (ip), vehicle: saline with Tween-80): 96 % of control
